Active and inactive are the calls of the source. No cut-off for these calls is given here.
Experiments:
[1] = Cytotoxicity against human MRC5 cells after 48 hrs by WST8 assay; type: cell-based
[2] = target: DNA topoisomerase 2-alpha (Homo sapiens, UniProt P11388); assay: Inhibition of human DNA topoisomerase 2-mediated relaxation of supercoiled DNA by gel electrophoresis
HL-60 [3] = assay: Cytotoxicity against human HL60 cells after 48 hrs by WST8 assay; type: functional; details: HL-60, 48 h
PC-3 [4] = assay: Cytotoxicity against human PC3 cells after 48 hrs by WST8 assay; type: functional; details: PC-3, 48 h
PANC-1 [5] = assay: Cytotoxicity against human PANC1 cells after 48 hrs by WST8 assay; type: functional; details: PANC-1, 48 h
[6] = target: T1, DNA topoisomerase 1 (Homo sapiens) (UniProt P11387); assay: Inhibition of human DNA topoisomerase 1-mediated relaxation of supercoiled DNA at 450 uM
T1 sequence (whole entry): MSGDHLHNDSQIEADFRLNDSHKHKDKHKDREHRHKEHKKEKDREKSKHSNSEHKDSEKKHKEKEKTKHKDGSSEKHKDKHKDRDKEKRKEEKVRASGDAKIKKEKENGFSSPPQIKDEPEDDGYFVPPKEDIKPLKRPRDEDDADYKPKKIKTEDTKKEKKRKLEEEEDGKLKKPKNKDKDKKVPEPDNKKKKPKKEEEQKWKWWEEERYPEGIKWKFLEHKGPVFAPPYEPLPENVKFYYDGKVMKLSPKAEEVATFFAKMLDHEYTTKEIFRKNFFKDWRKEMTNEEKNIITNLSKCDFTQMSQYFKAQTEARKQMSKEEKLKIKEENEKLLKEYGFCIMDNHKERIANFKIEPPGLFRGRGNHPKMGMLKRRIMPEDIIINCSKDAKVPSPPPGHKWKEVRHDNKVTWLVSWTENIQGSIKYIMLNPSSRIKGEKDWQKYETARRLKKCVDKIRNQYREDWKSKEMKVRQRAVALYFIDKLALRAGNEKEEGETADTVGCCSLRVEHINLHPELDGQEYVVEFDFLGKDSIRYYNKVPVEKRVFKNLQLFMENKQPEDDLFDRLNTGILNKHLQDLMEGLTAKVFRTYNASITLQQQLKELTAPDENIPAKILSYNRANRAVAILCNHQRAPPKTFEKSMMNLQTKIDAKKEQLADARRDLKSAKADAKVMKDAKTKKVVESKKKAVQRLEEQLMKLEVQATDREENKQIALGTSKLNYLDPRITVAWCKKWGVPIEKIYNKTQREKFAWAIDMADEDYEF

DNA topoisomerase 1 [7] = target: T2, DNA topoisomerase 1 (Homo sapiens, UniProt P11387); assay: Inhibition of human DNA topoisomerase 1-mediated relaxation of supercoiled DNA by gel electrophoresis
T2 sequence (P11387 whole entry): T1 sequence (whole entry)

A549 [8] = assay: Cytotoxicity against human A549 cells after 48 hrs by WST8 assay; type: functional; details: A549, 48 h
A549 [9] = assay: Cytotoxicity against human A549 cells at 25 uM after 48 hrs by WST8 assay; type: functional, cell-based
HL-60 [10] = assay: Cytotoxicity against human HL60 cells at 25 uM after 48 hrs by WST8 assay; type: functional, cell-based
[11] = target: T1, DNA topoisomerase 1 (Homo sapiens); assay: Inhibition of human DNA topoisomerase 1-mediated relaxation of supercoiled DNA at 312 uM
MRC5 = assay: Cytotoxicity against human MRC5 cells at 25 uM after 48 hrs by WST8 assay; type: cell-based; details: mrc5, 48 h
PC-3 [12] = assay: Cytotoxicity against human PC3 cells at 25 uM after 48 hrs by WST8 assay; type: functional, cell-based
PANC-1 [13] = assay: Cytotoxicity against human PANC1 cells at 25 uM after 48 hrs by WST8 assay; type: functional, cell-based
[14] = target: T1, DNA topoisomerase 1 (Homo sapiens); assay: Inhibition of human DNA topoisomerase 1 assessed as intercalate into DNA at 312 uM
[15] = target: T1, DNA topoisomerase 1 (Homo sapiens); assay: Inhibition of human DNA topoisomerase 1 assessed as stabilize DNA-enzyme covalent complex
[16] = target: T1, DNA topoisomerase 1 (Homo sapiens); assay: Inhibition of human DNA topoisomerase 1 assessed as prevention of DNA-enzyme complex formation
DNA topoisomerase 1 [17] = target: T2, DNA topoisomerase 1; assay: Inhibition of human DNA topoisomerase 1 at free enzyme state
[18] = target: T1, DNA topoisomerase 1 (Homo sapiens); assay: Inhibition of human DNA topoisomerase 1-mediated relaxation of supercoiled DNA at >125 uM
[19] = target: T1, DNA topoisomerase 1 (Homo sapiens); assay: Inhibition of human DNA topoisomerase 1-mediated relaxation of supercoiled DNA at 63 to 125 uM

Sequence of DNA topoisomerase 2-alpha (P11388 whole entry): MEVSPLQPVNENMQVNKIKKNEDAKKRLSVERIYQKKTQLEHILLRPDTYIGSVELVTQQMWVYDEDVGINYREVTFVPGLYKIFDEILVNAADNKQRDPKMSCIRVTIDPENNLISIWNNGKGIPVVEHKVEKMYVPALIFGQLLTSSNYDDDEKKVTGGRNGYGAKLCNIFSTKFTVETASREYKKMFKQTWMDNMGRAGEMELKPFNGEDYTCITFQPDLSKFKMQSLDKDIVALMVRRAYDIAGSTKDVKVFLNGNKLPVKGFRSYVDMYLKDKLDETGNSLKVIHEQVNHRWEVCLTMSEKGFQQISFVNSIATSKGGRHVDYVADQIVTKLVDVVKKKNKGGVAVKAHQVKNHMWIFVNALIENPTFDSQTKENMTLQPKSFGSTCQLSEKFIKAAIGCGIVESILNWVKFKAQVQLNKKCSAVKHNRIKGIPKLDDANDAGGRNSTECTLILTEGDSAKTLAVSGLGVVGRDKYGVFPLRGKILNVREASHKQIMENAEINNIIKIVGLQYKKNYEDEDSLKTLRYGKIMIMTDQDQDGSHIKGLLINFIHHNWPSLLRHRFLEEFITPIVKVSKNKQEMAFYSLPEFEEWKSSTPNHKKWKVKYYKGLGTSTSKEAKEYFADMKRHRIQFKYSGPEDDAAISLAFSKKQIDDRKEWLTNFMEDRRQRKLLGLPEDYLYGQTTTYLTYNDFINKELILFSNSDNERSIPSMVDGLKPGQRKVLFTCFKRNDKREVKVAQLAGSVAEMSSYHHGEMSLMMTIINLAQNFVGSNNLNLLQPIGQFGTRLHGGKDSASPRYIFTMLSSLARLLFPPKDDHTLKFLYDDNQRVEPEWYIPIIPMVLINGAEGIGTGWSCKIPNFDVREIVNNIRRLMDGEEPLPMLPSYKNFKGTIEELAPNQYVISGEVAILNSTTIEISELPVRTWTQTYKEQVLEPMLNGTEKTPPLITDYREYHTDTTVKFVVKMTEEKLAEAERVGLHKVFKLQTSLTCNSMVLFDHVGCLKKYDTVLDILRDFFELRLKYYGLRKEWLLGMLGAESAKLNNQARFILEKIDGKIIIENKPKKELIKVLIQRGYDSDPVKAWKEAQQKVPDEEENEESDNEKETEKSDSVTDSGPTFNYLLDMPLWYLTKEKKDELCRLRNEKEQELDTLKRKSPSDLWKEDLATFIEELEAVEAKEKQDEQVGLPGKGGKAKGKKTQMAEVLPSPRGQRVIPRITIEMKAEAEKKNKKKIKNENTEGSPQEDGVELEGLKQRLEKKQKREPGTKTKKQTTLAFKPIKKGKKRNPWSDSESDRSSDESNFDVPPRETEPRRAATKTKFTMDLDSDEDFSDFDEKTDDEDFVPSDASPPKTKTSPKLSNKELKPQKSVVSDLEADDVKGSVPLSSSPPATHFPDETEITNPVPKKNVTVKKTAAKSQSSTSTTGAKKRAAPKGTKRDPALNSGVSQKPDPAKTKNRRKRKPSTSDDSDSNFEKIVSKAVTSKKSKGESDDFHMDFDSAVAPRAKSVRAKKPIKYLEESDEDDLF

C/C=C(/C)C(=O)O[C@H]1[C@H](OC(=O)/C(C)=C\C)[C@]2(CO)[C@H](O)C[C@]3(C)C(=CC[C@@H]4[C@@]5(C)CC[C@H](O)C(C)(C)[C@@H]5CC[C@]43C)[C@@H]2CC1(C)C
GI50 at 48 h [1]: 7.18 µM
IC50 [2]: > 250 µM
GI50 (HL-60 [3]): 5.46 µM
GI50 (PC-3 [4]): 6.84 µM
GI50 (PANC-1 [5]): 11.2 µM
inhibition [6]: inactive
IC50 (DNA topoisomerase 1 [7]): > 250 µM
GI50 (A549 [8]): 5.48 µM

C/C=C(/C)C(=O)O[C@H]1[C@H](O)[C@]2(CO)[C@H](O)[C@H](O)[C@]3(C)C(=CC[C@@H]4[C@@]5(C)CC[C@H](O[C@@H]6O[C@H](C(=O)O)[C@@H](O)[C@H](O[C@@H]7O[C@@H](CO)[C@H](O)[C@H]7O)[C@H]6O[C@@H]6O[C@H](CO)[C@H](O)[C@H](O)[C@H]6O)C(C)(C)[C@@H]5CC[C@]43C)[C@@H]2CC1(C)C [AESCULIOSIDE IIA]
growth inhibition (GI) (A549 [9]): inactive
IC50 [2]: > 250 µM
growth inhibition (GI) (HL-60 [10]): inactive
inhibition [11]: inactive
inhibition [6]: Active
growth inhibition (GI) (MRC5): Not Active
IC50 (DNA topoisomerase 1 [7]): 109 µM
growth inhibition (GI) (PC-3 [12]): inactive
growth inhibition (GI) (PANC-1 [13]): inactive

C/C=C(/C)C(=O)O[C@H]1[C@H](O)[C@]2(CO)[C@H](O)C[C@]3(C)C(=CC[C@@H]4[C@@]5(C)CC[C@H](O[C@@H]6O[C@H](C(=O)O)[C@@H](O)[C@H](O[C@@H]7O[C@@H](CO)[C@H](O)[C@H]7O)[C@H]6O[C@@H]6O[C@H](CO)[C@H](O)[C@H](O)[C@H]6O)C(C)(C)[C@@H]5CC[C@]43C)[C@@H]2CC1(C)C [AESCULIOSIDE IIC]
GI50 at 48 h [1]: 11.2 µM
Activity [14]: Active
IC50 [2]: > 250 µM
GI50 (HL-60 [3]): 5.75 µM
GI50 (PC-3 [4]): 16.3 µM
inhibition [15]: inactive
inhibition [11]: inactive
inhibition [6]: Active
inhibition [16]: Active
IC50 (DNA topoisomerase 1 [7]): 111 µM
GI50 (A549 [8]): 8.67 µM
growth inhibition (GI) (PANC-1 [13]): inactive
IC50 (DNA topoisomerase 1 [17]): 23.8 µM

C/C=C(\C)C(=O)O[C@H]1[C@H](OC(C)=O)[C@]2(CO)[C@H](O)[C@H](O)[C@]3(C)C(=CC[C@@H]4[C@@]5(C)CC[C@H](O[C@@H]6O[C@H](C(=O)O)[C@@H](O)[C@H](O[C@@H]7O[C@@H](CO)[C@H](O)[C@H]7O)[C@H]6O[C@@H]6O[C@H](CO)[C@@H](O)[C@H](O)[C@H]6O)[C@](C)(CO)[C@@H]5CC[C@]43C)[C@@H]2CC1(C)C [AESCULIOSIDE IIE]
growth inhibition (GI) (A549 [9]): inactive
growth inhibition (GI) (HL-60 [10]): inactive
inhibition [18]: Active
growth inhibition (GI) (MRC5): Not Active
growth inhibition (GI) (PC-3 [12]): inactive
growth inhibition (GI) (PANC-1 [13]): inactive

C/C=C(/C)C(=O)O[C@H]1[C@H](O)[C@]2(COC(C)=O)[C@H](O)C[C@]3(C)C(=CC[C@@H]4[C@@]5(C)CC[C@H](O[C@@H]6O[C@H](C(=O)O)[C@@H](O)[C@H](O[C@@H]7O[C@@H](CO)[C@H](O)[C@H]7O)[C@H]6O[C@@H]6O[C@H](CO)[C@@H](O)[C@H](O)[C@H]6O)[C@](C)(CO)[C@@H]5CC[C@]43C)[C@@H]2CC1(C)C [AESCULIOSIDE IIIA]
GI50 at 48 h [1]: 8.65 µM
Activity [14]: Active
IC50 [2]: > 250 µM
GI50 (HL-60 [3]): 7.2 µM
GI50 (PC-3 [4]): 10.1 µM
inhibition [15]: inactive
inhibition [11]: inactive
GI50 (PANC-1 [5]): 16.7 µM
inhibition [6]: Active
inhibition [16]: Active
IC50 (DNA topoisomerase 1 [7]): 119 µM
GI50 (A549 [8]): 9.48 µM
IC50 (DNA topoisomerase 1 [17]): 23.8 µM

C/C=C(/C)C(=O)O[C@H]1[C@H](OC(=O)C(C)C)[C@]2(CO)[C@H](O)[C@H](O)[C@]3(C)C(=CC[C@@H]4[C@@]5(C)CC[C@H](O[C@@H]6O[C@H](C(=O)O)[C@@H](O)[C@H](O[C@@H]7O[C@@H](CO)[C@H](O)[C@H]7O)[C@H]6O[C@@H]6O[C@H](CO)[C@@H](O)[C@H](O)[C@H]6O)[C@](C)(CO)[C@@H]5CC[C@]43C)[C@@H]2CC1(C)C [AESCULIOSIDE IIIB]
Activity [14]: Active
IC50 [2]: > 250 µM
GI50 (HL-60 [3]): 10.9 µM
GI50 (PC-3 [4]): 9.93 µM
inhibition [15]: inactive
inhibition [11]: inactive
inhibition [6]: Active
inhibition [16]: Active
growth inhibition (GI) (MRC5): Not Active
IC50 (DNA topoisomerase 1 [7]): 160 µM
GI50 (A549 [8]): 11.2 µM
growth inhibition (GI) (PANC-1 [13]): inactive
IC50 (DNA topoisomerase 1 [17]): 23.8 µM

C/C=C(\C)C(=O)O[C@H]1[C@H](OC(=O)C(C)CC)[C@]2(CO)[C@H](O)[C@H](O)[C@]3(C)C(=CC[C@@H]4[C@@]5(C)CC[C@H](O[C@@H]6O[C@H](C(=O)O)[C@@H](O)[C@H](O[C@@H]7O[C@@H](CO)[C@H](O)[C@H]7O)[C@H]6O[C@@H]6O[C@H](CO)[C@H](O)[C@H](O)[C@H]6O)C(C)(C)[C@@H]5CC[C@]43C)[C@@H]2CC1(C)C (stereo not given in full) [AESCULIOSIDE IIIC]
Activity [14]: Active
IC50 [2]: > 250 µM
GI50 (HL-60 [3]): 13.6 µM
GI50 (PC-3 [4]): 12.5 µM
GI50 (PANC-1 [5]): 18.5 µM
inhibition [6]: Active
growth inhibition (GI) (MRC5): Not Active
IC50 (DNA topoisomerase 1 [7]): 132 µM
GI50 (A549 [8]): 17.6 µM

C/C=C(\C)C(=O)O[C@H]1[C@H](OC(=O)/C(C)=C/C)[C@]2(CO)[C@H](O)[C@H](O)[C@]3(C)C(=CC[C@@H]4[C@@]5(C)CC[C@H](O[C@@H]6O[C@H](C(=O)O)[C@@H](O)[C@H](O[C@@H]7O[C@@H](CO)[C@H](O)[C@H]7O)[C@H]6O[C@@H]6O[C@H](CO)[C@@H](O)[C@H](O)[C@H]6O)[C@](C)(CO)[C@@H]5CC[C@]43C)[C@@H]2CC1(C)C [AESCULIOSIDE IIID]
GI50 at 48 h [1]: 9.01 µM
Activity [14]: Active
IC50 [2]: > 250 µM
GI50 (HL-60 [3]): 15.2 µM
GI50 (PC-3 [4]): 14.6 µM
GI50 (PANC-1 [5]): 21.7 µM
inhibition [19]: Active
IC50 (DNA topoisomerase 1 [7]): 48.6 µM
GI50 (A549 [8]): 23.7 µM

C/C=C(/C)C(=O)O[C@H]1[C@H](OC(=O)/C(C)=C/C)C(C)(C)C[C@H]2C3=CC[C@@H]4[C@@]5(C)CC[C@H](O[C@@H]6O[C@H](C(=O)O)[C@@H](O)[C@H](O[C@@H]7O[C@@H](CO)[C@H](O)[C@H]7O)[C@H]6O[C@@H]6O[C@H](CO)[C@@H](O)[C@H](O)[C@H]6O)[C@](C)(CO)[C@@H]5CC[C@@]4(C)[C@]3(C)[C@@H](O)[C@@H](O)[C@]21CO [AESCULIOSIDE IIIE]
GI50 at 48 h [1]: 21.5 µM
Activity [14]: Active
IC50 [2]: > 250 µM
GI50 (HL-60 [3]): 14 µM
GI50 (PC-3 [4]): 12.8 µM
GI50 (PANC-1 [5]): 21.4 µM
inhibition [19]: Active
IC50 (DNA topoisomerase 1 [7]): 45.1 µM
GI50 (A549 [8]): 21.3 µM

C/C=C(/C)C(=O)O[C@H]1[C@H](OC(=O)C(C)CC)[C@]2(CO)[C@H](O)C[C@]3(C)C(=CC[C@@H]4[C@@]5(C)CC[C@H](O[C@@H]6O[C@H](C(=O)O)[C@@H](O)[C@H](O[C@@H]7O[C@@H](CO)[C@H](O)[C@H]7O)[C@H]6O[C@@H]6O[C@H](CO)[C@H](O)[C@H](O)[C@H]6O)C(C)(C)[C@@H]5CC[C@]43C)[C@@H]2CC1(C)C (stereo not given in full) [AESCULIOSIDE IVC]
GI50 at 48 h [1]: 4.34 µM
IC50 [2]: > 250 µM
GI50 (HL-60 [3]): 8.02 µM
GI50 (PC-3 [4]): 7.7 µM
inhibition [15]: inactive
GI50 (PANC-1 [5]): 15.6 µM
inhibition [19]: Active
inhibition [16]: Active
IC50 (DNA topoisomerase 1 [7]): 49.7 µM
GI50 (A549 [8]): 10.2 µM
IC50 (DNA topoisomerase 1 [17]): 23.8 µM

From ChEMBL document CHEMBL1157938, “Cytotoxicity and inhibition of DNA topoisomerase I of polyhydroxylated triterpenoids and triterpenoid glycosides” (Bioorg Med Chem Lett, 2010)
